Results on 13 compounds are retold here after PubChem BioAssay (NCI).

Among the test systems are DU-145 prostate; OVCAR-4 ovarian; HT29 colon; K-562 leukemia; NCI/ADR-RES ovarian; SK-OV-3 ovarian; HCT-116 colon; RPMI-8226 leukemia; OVCAR-5 ovarian; HCT-15 colon.
What all share (assay): growth of human tumour cells (NCI), 48 h

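The compound was tested at five concentrations on cells cultured in 96-well plates, with a 48-hour exposure period. At the TGI there is no net growth.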

As to `NCCNCCNc1ccc(NCCNCCN)c2c1C(=O)c1c(O)ccc(O)c1C2=O`, the TGI in the assay with DU-145 prostate, in the assay with OVCAR-4 ovarian, in the assay with HT29 colon, in the assay with K-562 leukemia, in the assay with NCI/ADR-RES ovarian and in the assay on SK-OV-3 ovarian was greater than 100 µM in each case. Besides, the TGI in the assay on HCT-116 colon, in the assay with RPMI-8226 leukemia, in the assay with OVCAR-5 ovarian and in the assay with HCT-15 colon was greater than 100 µM in each case.

On to `COC(=O)/C=C1\CCCN1CCc1cc2c(cc1CC#N)OCO2`, for which the TGI with DU-145 prostate, in the assay on OVCAR-4 ovarian, in the assay with HT29 colon, with K-562 leukemia, with NCI/ADR-RES ovarian and with SK-OV-3 ovarian was greater than 100 µM throughout. Besides, the TGI with HCT-116 colon, with RPMI-8226 leukemia, in the assay with OVCAR-5 ovarian and in the assay on HCT-15 colon was greater than 100 µM throughout.

Turning to `COC(=O)c1ccccc1C1=C([N+](=O)[O-])C(c2cccc(Br)c2)C(C#N)=C(N)O1` (configuration not stated), the TGI in the assay with DU-145 prostate was greater than 100 µM; with HT29 colon it was greater than 100 µM; in the assay with K-562 leukemia it was 76.5 µM; in the assay on NCI/ADR-RES ovarian, 65.9 µM; with SK-OV-3 ovarian, greater than 100 µM; in the assay with HCT-116 colon it was 92.9 µM. Also, the TGI was greater than 100 µM in the assay on RPMI-8226 leukemia, greater than 100 µM in the assay on OVCAR-5 ovarian and 41 µM with HCT-15 colon.

For the compound `Nc1nc(OCC2CCCCC2)c2[nH]cnc2n1`, the TGI in the assay on DU-145 prostate is greater than 64.3 µM; in the assay on OVCAR-4 ovarian, 42.3 µM; in the assay with HT29 colon, 48.5 µM; in the assay with K-562 leukemia, greater than 100 µM; in the assay on NCI/ADR-RES ovarian, greater than 100 µM; in the assay with SK-OV-3 ovarian, 68.5 µM. Moreover, the TGI in the assay on HCT-116 colon was 74 µM; in the assay on RPMI-8226 leukemia, 55.5 µM; in the assay on OVCAR-5 ovarian, 53.1 µM; in the assay with HCT-15 colon, greater than 100 µM.

Regarding `O=C(CSc1nc2ccc(I)cc2c(=O)n1Cc1ccccc1)NN1C(=O)c2ccccc2C1=O`, the TGI with DU-145 prostate was 95.1 µM; in the assay with OVCAR-4 ovarian it was 38.2 µM; in the assay with HT29 colon, greater than 100 µM; in the assay on K-562 leukemia it was greater than 100 µM; in the assay with NCI/ADR-RES ovarian it was 42.8 µM; with SK-OV-3 ovarian, 29.1 µM. The TGI in the assay with HCT-116 colon was greater than 100 µM; in the assay with RPMI-8226 leukemia, greater than 100 µM; in the assay with OVCAR-5 ovarian, 86.7 µM; in the assay on HCT-15 colon, greater than 100 µM.

Turning to `CCSc1nc(-c2cccs2)nc2ccc(I)cc12`, the TGI in the assay on DU-145 prostate, in the assay with OVCAR-4 ovarian, with HT29 colon, in the assay with K-562 leukemia, in the assay on NCI/ADR-RES ovarian and in the assay with HCT-116 colon was greater than 100 µM throughout. Besides, the TGI in the assay with RPMI-8226 leukemia, in the assay on OVCAR-5 ovarian and with HCT-15 colon was greater than 100 µM each time.

For `CC(=O)OCC1OC(Oc2cc(C)c(O)cc2C/C=C(\C)CC/C=C(\C)C[C@@H](C=C(C)C)OC(C)=O)C(O)C(OC(C)=O)C1OC(C)=O` (some centres not stated), the TGI with DU-145 prostate was greater than 50 µM; with OVCAR-4 ovarian, greater than 50 µM; with HT29 colon, greater than 50 µM; in the assay on K-562 leukemia, 35.4 µM; in the assay on NCI/ADR-RES ovarian, greater than 50 µM; in the assay on SK-OV-3 ovarian, greater than 50 µM. In addition, the TGI was greater than 50 µM with HCT-116 colon, 24.1 µM in the assay on RPMI-8226 leukemia, greater than 50 µM in the assay with OVCAR-5 ovarian and greater than 50 µM in the assay on HCT-15 colon.

As for `COC(=O)NC1C(C)OC(OC2C/C=C(/C)C3C=CC4C(OC5CC(OC6CC(OC7CC(O)C(O)C(C)O7)C(OC7CC(O)C(OC)C(C)O7)C(C)O6)C(O)C(C)O5)C(C)CC(C)C4C3(C)/C(O)=C3\C(=O)OC4(CC(C)C(CO)=CC4/C=C\2C)C3=O)CC1(C)[N+](=O)[O-]` (configuration not stated), the TGI is 19.6 µM in the assay with DU-145 prostate; 46.2 µM in the assay on OVCAR-4 ovarian; 20.5 µM in the assay with HT29 colon; greater than 100 µM in the assay with NCI/ADR-RES ovarian; 3.09 µM in the assay with HCT-116 colon; 7.66 µM in the assay with RPMI-8226 leukemia. Further, the TGI came out at 42.1 µM in the assay with OVCAR-5 ovarian and 36.4 µM in the assay with HCT-15 colon.

Consider `C[n+]1c2ccccc2c(CNC(CS)C(=O)O)c2ccccc21` (configuration not stated), for which the TGI is greater than 100 µM in the assay with OVCAR-4 ovarian; greater than 100 µM in the assay with HT29 colon; greater than 100 µM in the assay on K-562 leukemia; 56.8 µM in the assay on SK-OV-3 ovarian; 37.8 µM with HCT-116 colon; 50.5 µM in the assay on RPMI-8226 leukemia. Besides, the figures for the TGI in the assay on OVCAR-5 ovarian and with HCT-15 colon were greater than 100 µM and 55.1 µM, respectively.

In the case of `O=c1c2cc(S(=O)(=O)O)ccc2nc(COc2ccc(Oc3ccc(Cl)cc3Cl)cc2)n1C(=S)Nc1ccc(Cl)cc1`, the TGI in the assay on DU-145 prostate is 87 µM; with OVCAR-4 ovarian it was 59.3 µM; with HT29 colon it was 36.4 µM; in the assay with K-562 leukemia, 30.8 µM; in the assay with NCI/ADR-RES ovarian, 37.9 µM; in the assay on SK-OV-3 ovarian, 49 µM. The TGI in the assay with HCT-116 colon stood at 53.3 µM; in the assay on RPMI-8226 leukemia, 81.5 µM; in the assay with OVCAR-5 ovarian, 40.7 µM; with HCT-15 colon, 50.5 µM.

As to `CCCCCCCN(CCCCCCC)CC(O)c1cc2ccccc2c2cc(Br)ccc12` (configuration not stated), the TGI with DU-145 prostate was 38.8 µM; with OVCAR-4 ovarian, greater than 100 µM; in the assay on HT29 colon, greater than 100 µM; in the assay with K-562 leukemia, greater than 100 µM; in the assay with NCI/ADR-RES ovarian, greater than 100 µM; with SK-OV-3 ovarian it was greater than 100 µM. In addition, the TGI with HCT-116 colon, in the assay on RPMI-8226 leukemia, with OVCAR-5 ovarian and in the assay with HCT-15 colon was greater than 100 µM each time.

Take `O=C(NC(Cc1ccc(I)cc1)C(=O)O)c1ccc(Cl)cc1` (configuration not stated): the TGI in the assay on OVCAR-4 ovarian, in the assay on HT29 colon, with K-562 leukemia, in the assay on NCI/ADR-RES ovarian, with SK-OV-3 ovarian and in the assay on HCT-116 colon was greater than 100 µM each time. Further, the TGI in the assay with RPMI-8226 leukemia, in the assay on OVCAR-5 ovarian and with HCT-15 colon was greater than 100 µM throughout.

On to `N=C(N)SCc1cccc([N+](=O)[O-])c1`, for which the TGI in the assay on OVCAR-4 ovarian was greater than 83.1 µM; in the assay on HT29 colon it was 85.1 µM; with K-562 leukemia, greater than 62.3 µM; in the assay on NCI/ADR-RES ovarian, 48.3 µM; in the assay with SK-OV-3 ovarian, greater than 81.4 µM; in the assay with HCT-116 colon, greater than 83.7 µM. The TGI in the assay with RPMI-8226 leukemia was 59.1 µM; in the assay with OVCAR-5 ovarian, greater than 100 µM; in the assay with HCT-15 colon, greater than 100 µM.
